According to patent US5880116A, “Use of celastrol to treat alzheimer's disease” (Neurocal International, priority 1996, dated 1999):

Key:
[1] = tested on: rats (psychomotor activity); experiment: Open-field psychomotor activity (PMA, VA, FF) in OUCEM-86 electronic maze; assay type: in vivo, rat (female Sprague-Dawley); conditions: for PMA: Psychomotor activity: N = 6, mean ± SD, 30 min recording
Protocol: (§1) Celastrol or vehicle was administered to rats as described below. Female Sprague-Dawley rats (obtained from Santiago University, Santiago de Compostela, Spain) were about 3 months old and weighed 200-250 g. The animals were maintained under standard conditions at the Euroespes Institute laboratory facilities.
(§2) The celastrol formulation was purchased in China in the form of pills under the name of "Leigongtengpian." The dose is expressed as the content of celastrol. The celastrol was dissolved in DMSO (35 μg/mL) and then adjusted to the appropriate concentration with 0.9% saline. Doses of 1.4, 7 and 35 μg/kg were administered intraperitoneally (i.p.) in a total injection volume of 2 ml/kg.
Immediately after injection, the animals were placed in the Osaka University Computerized Electronic Maze system (OUCEM-86, obtained from Bio Medica, Ltd., Osaka, Japan). The system, as previously described by Cacabelos et al (Prog. Med. 7:763-773, 1987), is integrated with the following components: A Programmable Electronic Platform (PEP) which measures 62 cm×62 cm and is equipped with 48 photo beam sensors (OPX-T30) to detect the three-dimensional position (four-footed, two-footed or rearing, and jumping) of the test animal; a Programming Panel (PP) (Model BECM-0064) for paradigm simulation; a Shock Generator Scrambler (SGS)(Model BSG-1065) to apply continuous or discontinuous electric currents to the PEP; a Control Station interface device to automatically computerize behavioral parameters; and a Computerized System (NEC PC-9801F) for data processing and experimental setting.
Tests were conducted in an open-field paradigm (where the rat can move freely) as previously described (Cacabelos et al. 1987) where psychomotor activity (PMA) was automatically recorded. Total PMA is the sum of horizontal and vertical movements. Horizontal movements are four-footed movements (FF). Vertical activity (VA) includes jumping and rearing (or two-footed) movements. The temporal profile of PMA during the 30 minutes of recording was also studied. PMA, FF and VA were expressed as total inputs/outputs (I/O). In general, increases in PMA, mainly in VA, are observed in situations of stress. A global increase in PMA is also found under treatment with stimulants and in rats with brain cholinergic deficits. Conversely, decreases in PMA are typical of sedative drugs, for instance.
(§3) Data were statistically analyzed by the ANOVA and the Duncan test for multiple comparisons. Results were expressed as mean ± standard deviation (SD) in tables and as mean ± standard error of […] (SEM) in figures.

[2] = tested on: rats (psychomotor coordination); experiment: Psychomotor coordination (PMC) in rota-rod apparatus; assay type: in vivo, rat (female Sprague-Dawley); conditions: for PMC: Psychomotor coordination: N = 6, mean ± SD
Protocol: as §1, §2
At one hour after treatment, psychomotor coordination (PMC) was evaluated in a rota-rod apparatus (Letica Scientifiic Instruments, Barcelona, Spain) which consists of a roller turning at a constant pre-selected velocity (4-40 rpm) or at an increasing velocity with constant acceleration (for example, from 4 to 40 rpm in 300 seconds), and four digital counters that are stopped when the rat falls from the rod and lowers a pedal. In this test, the animals ran on a rod with constant acceleration until they fell off because they are unable to run at the necessary velocity to maintain equilibrium. Generally, there are two main causes of low performance in this test 1) myorelaxation and 2) balance disorders, as in some vestibular and brain lesions. Improved performance is seen with drugs improving muscular strength, motor coordination and/or balance. Mean running time of five consecutive trials was taken as an index of PMC.
as §3

[3] = tested on: rats (passive avoidance learning); experiment: Passive avoidance behavior (PAB) learning, fixed-ratio maze paradigm; assay type: in vivo, rat (female Sprague-Dawley); conditions: for Av: number of avoidances during 10 trials / La: mean latency time per trial: N = 6, mean ± SD
Protocol: as §1, §2
Two hours after treatment, rats were tested for passive avoidance behavior in a PAB fixed-ratio maze paradigm, in which they learned to stay on a neutral platform (18×18 cm) in order to avoid a continuous electric footshock in the surrounding area during 10 trials (30 seconds each). The inter-trial interval was 30 seconds. The number of complete avoidances during 10 trials (Av; successful trials in which rat remains in the neutral area the entire 30-second period) and the latency per trial (La; time spent in the neutral platform before leaving it in a trial) were taken as learning indices. The number of avoidances represents a yes/no or discontinuous variable reflecting learning ability of the rats. In general, good learners perform more avoidances because they need fewer trials to learn to avoid footshock. Latency is a continuous variable measuring the time the rat is on the neutral platform without receiving footshock. Rats having the best memory or learning capacity spend more time on the neutral area. Therefore, latency is also an index of learning ability. Finally, when a drug increases the number of avoidances and mean trial latency in this paradigm, it means that this drug improves learning and memory function.
as §3

splenic cells = conditions: cited from earlier work
ICR inbred mice = conditions: 1-3 mg/kg i.p. daily; cited from earlier work
peritoneal macrophages = conditions: dose dependent; cited from earlier work
splenic lymphocytes = conditions: dose dependent; cited from earlier work
[4] = tested on: AA rats with experimental adjuvant arthritis; conditions: rat, in vivo; cited from earlier work
[5] = in words; cited from earlier work
agitation and aggression = conditions: in vivo; cited from earlier work
[6] = tested on: patients clinically diagnosed with early AD; conditions: six months; cited from earlier work
AD patients = conditions: file history of US 5,192,753; cited from earlier work
patients with AD = conditions: a subgroup of patients with AD; cited from earlier work
[7] = 1.4 μg/kg i.p., 2 hours after treatment
[8] = 7.0 μg/kg i.p., * p < 0.05 vs control (0.0)

CC1=C(O)C(=O)C=C2C1=CC=C1[C@@]2(C)CC[C@@]2(C)[C@@H]3C[C@](C)(C(=O)O)CC[C@]3(C)CC[C@]12C [Celastrol]
PMA vs untreated group, in words ([1]; 1.4 μg group, significance not reached): higher than for the untreated group | PMA: Psychomotor activity ([1]; 1.4 μg/kg i.p.): 3011 ± 1185 I/O | PMA: Psychomotor activity ([1]; 7.0 μg/kg i.p.): 2200 ± 1203 I/O | PMA: Psychomotor activity ([1]; 35.0 μg/kg i.p.): 1637 ± 796 I/O | four-footed (FF) activity (FIG. 12), in words ([1]; 1.4 and 7 μg groups): improved somewhat | PMA (total activity, FIG. 10), in words ([1]; 1.4 and 7 μg treatment groups): fared somewhat better | vertical activity (VA, FIG. 11), in words ([1]; 1.4 and 7 μg treatment groups vs no-treatment group): fared somewhat better than the no-treatment group | PMA over the thirty minute test interval (FIG. 13), in words ([1]; all treatment groups): a general trend of decreasing activity during the test period | dose of maximum effect on PMA ([1]; i.p.): 1.4 µg/kg | PMC: Psychomotor coordination ([2]; 1.4 μg/kg i.p., 1 hour after treatment): 99.4 ± 19.2 sec/trial | PMC, significance of difference ([2]; 7 μg group): reached significance | PMC: Psychomotor coordination ([2]; 7.0 μg/kg i.p., ** p < 0.01 vs control (0.0)): 126.3 ± 37.6 sec/trial | PMC: Psychomotor coordination ([2]; 35.0 μg/kg i.p., 1 hour after treatment): 106.5 ± 21.3 sec/trial | PMC (FIG. 14), in words ([2]; 1.4, 7 and 35 μg treatment groups vs no-treatment group): all scored better than the no-treatment group | dose of maximum effect on PMC ([2]; i.p.): 7 µg/kg | Av: number of avoidances during 10 trials [3, 7]: 4.3 ± 2.1 n° | La: mean latency time per trial [3, 7]: 18.3 ± 5.2 s | Av, significance of difference ([3]; 7 μg group): reached significance | La, significance of difference ([3]; 7 μg group): reached significance | Av: number of avoidances during 10 trials [3, 8]: 5.1 ± 1.8 n° | La: mean latency time per trial [3, 8]: 20.3 ± 2.8 s | latency time on the neutral platform (FIG. 16), in words ([3]; 7.0 μg/kg treatment group): learned significantly more quickly to stay on the platform and avoid the shock | La, significance of difference ([3]; 35 μg group): reached significance | La: mean latency time per trial ([3]; 35.0 μg/kg i.p., 2 hours after treatment): 18.8 ± 4.6 s | Av: number of avoidances during 10 trials ([3]; 35.0 μg/kg i.p., * p < 0.05 vs control (0.0)): 5.0 ± 1.4 n° | numbers of complete avoidances during 10 trials (FIG. 15), in words ([3]; 7 and 35 μg treatment groups vs no-treatment group): scored significantly higher | dose of maximum effect on PAB scores ([3]; i.p.): 7 µg/kg | concentration of optimal effects on mitogen-induced splenic cell proliferation (splenic cells; PHA, Con A, LPS and PWM): 0.1 µg/mL | proliferation of splenic cells induced by mitogens PHA, Con A, LPS and PWM (splenic cells; in words): inhibited proliferation | antibody formation (ICR inbred mice): reduced antibody formation very significantly | circulating immune complex levels (ICR inbred mice): decreased circulating immune complex levels | serum complement (ICR inbred mice): increased serum complement | LPS-induced IL-1 production (peritoneal macrophages): decreased | Con A-induced IL-2 production (splenic lymphocytes): decreased | joint edema [4]: reduced joint edema | lipid-peroxidation and free radical formation [4]: inhibition of lipid-peroxidation and free radical formation | insecticidal activity [5]: insecticidal inert

CC(C)NCC(O)COc1cccc2ccccc12 (stereo not shown) [Propranolol]
agitation and aggression (agitation and aggression): reported to help reduce agitation and aggression

O=C1CC2(CCCC2)CC(=O)N1CCCCN1CCN(c2ncccn2)CC1 [buspirone]
agitation and aggression (agitation and aggression): reported to help reduce agitation and aggression

COc1ccc2c(c1)c(CC(=O)O)c(C)n2C(=O)c1ccc(Cl)cc1 [indomethacin]
ADAS [6]: only slight decrements | BNT [6]: slight improvement | MMSE [6]: almost no change | TT [6]: only slight decrements

CC(C)NCC(O)COc1cccc2[nH]ccc12 (stereo not shown) [pindolol]
agitation and aggression (agitation and aggression): reported to help reduce agitation and aggression

C[C@]12C=CC(=O)C=C1CC[C@@H]1[C@@H]2C(=O)C[C@@]2(C)[C@H]1CC[C@]2(O)C(=O)CO [prednisone]
effect in AD patients (AD patients): no effect

Nc1c2c(nc3ccccc13)CCCC2 [tacrine]
cognitive and functional measures (patients with AD): improvement
